Experimental data taken from patent US20230390384A1 (priority 2020, published 2023).

Legend:
[1] = tested on: COVID-19 RBD antigen; format: in vivo, SARS-CoV-2; settings: Example 2, FIG. 6b; 5 μg each S1 and RBD; L-pampo 75 μg Pam3CSK4 + 60 μg poly(I:C) vs Alum, Addavax, AddaS03; Balb/c mice i.m. twice at 3-week intervals, serum 2 weeks after second immunization
[2] = tested on: COVID-19 S1 antigen; format: in vivo, SARS-CoV-2; settings: Example 2, FIG. 6a; 5 μg each S1 and RBD; L-pampo 75 μg Pam3CSK4 + 60 μg poly(I:C) vs Alum, Addavax, AddaS03; Balb/c mice i.m. twice at 3-week intervals, serum 2 weeks after second immunization
[3] = tested on: Mouse splenocytes; assay: IFN-γ ELISPOT on splenocytes of immunized mice (cellular immune response); format: in vivo, Balb/c mice; settings: Example 3, FIG. 11; test vaccine using only poly(I:C) as adjuvant, among all test vaccines

N-palmitoyl-S-[2,3-bis(palmitoyloxy)-(2RS)-propyl]-[R]-cystein-SKKKK [Pam3CSK4]
RBD antigen-specific antibody titer [1]: relatively superior
S1 antigen-specific antibody titer [2]: relatively superior

poly(I:C)
IFN-γ spot formation (ELISPOT) [3]: most IFN-γ spot formation
